Measurements as given in patent US8124788B2, “Spirocyclic cyclohexane compounds with analgesic activity” (Gruenenthal GmbH, priority 2006, dated 2012).

Target: T1, human μ opiate receptor (Homo sapiens, UniProt P35372)
T1 construct: purchased PerkinElmer Life Sciences, Zaventem, Belgium RB-HOM; host or cells: CHO-K1 cells (recombinant expression)
Experiment: Affinity for the human μ opiate receptor ([3H]-naloxone displacement, CHO-K1 membrane preparation, SPA)
Type: binding
Conditions: for μ opioid receptor [1 μmol], % inhibition: compounds prepared via automated synthesis, single measurements at a test concentration of 1 μM
Experimental: The receptor affinity for the human μ opiate receptor is determined in a homogeneous set-up in microtitre plates. For this purpose, dilution series of the substances to be tested are incubated with a receptor membrane preparation (15-40 μg of protein/250 μl of incubation batch) of CHO-K1 cells which express the human μ opiate receptor (RB-HOM receptor membrane preparation from PerkinElmer Life Sciences, Zaventem, Belgium) in the presence of 1 nmol/l of the radioactive ligand [^3H]-naloxone (NET719, PerkinElmer Life Sciences, Zaventem, Belgium) and 1 mg of WGA-SPA-Beads (wheat germ agglutinin SPA beads from Amersham/Pharmacia, Freiburg, Germany) in a total volume of 250 μl for 90 minutes at room temperature. 50 mmol/l of Tris-HCl supplemented with 0.06% of bovine serum albumin are used as the incubation buffer. 100 μmol/l of naloxone are additionally added for determination of the non-specific binding. After the end of the ninety-minute incubation time, the microtitre plates are centrifuged for 20 minutes at 1,000 g and the radioactivity is measured in a β-counter (Microbeta-Trilum, PerkinElmer Wallac, Freiburg, Germany). The percentage displacement of the radioactive ligand from its binding to the human μ opiate receptor is determined at a concentration of the test substances of 1 μmol/l and stated as the percentage inhibition of the specific binding. Starting from the percentage displacement by various concentrations of the test substances, IC50 inhibitory concentrations which cause a 50 percent displacement of the radioactive ligand are calculated. By conversion by means of the Cheng-Prusoff relationship, Ki values for the test substances are obtained.

[1] = 1 μM test substance, displacement of [3H]-naloxone

T1 sequence (P35372 whole entry): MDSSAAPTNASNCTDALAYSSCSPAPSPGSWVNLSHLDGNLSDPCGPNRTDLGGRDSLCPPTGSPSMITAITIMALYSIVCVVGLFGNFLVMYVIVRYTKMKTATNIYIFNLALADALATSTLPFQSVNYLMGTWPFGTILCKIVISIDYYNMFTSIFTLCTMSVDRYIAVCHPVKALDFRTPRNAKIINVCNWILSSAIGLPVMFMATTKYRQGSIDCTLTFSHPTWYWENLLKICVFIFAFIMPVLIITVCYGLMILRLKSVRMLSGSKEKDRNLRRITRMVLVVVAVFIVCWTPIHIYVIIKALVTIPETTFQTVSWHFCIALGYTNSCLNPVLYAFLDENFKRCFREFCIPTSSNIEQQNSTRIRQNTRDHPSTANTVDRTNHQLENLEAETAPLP

SMILES	μ opioid receptor [1 μmol], % inhibition	further results
COc1cccc(CC(=O)N2CCc3c([nH]c4ccccc34)C23CCC(C(c2ccccc2)N(C)C)CC3)c1 (stereo not drawn) [Compound 136, 2-[(3-methoxyphenyl)acetyl]-{1,1-[3-(dimethylamino-phenylmethyl)-pentamethylene]-3,4-dihydro-1H-2,9-diazafluorene}]	75%	
CN(C)C(c1ccccc1)C1CCC2(CC1)c1[nH]c3ccccc3c1CCN2C(=O)c1csc2ccccc12 (stereo not drawn) [Compound 103, 2-(1-benzothien-3-ylcarbonyl)-{1,1-[3-(dimethylamino-phenylmethyl)-pentamethylene]-3,4-dihydro-1H-2,9-diazafluorene}]	13%	
CN(C)C(c1cccc(F)c1)C1CCC2(CC1)c1[nH]c3ccccc3c1CCN2C(=O)COc1ccc(Cl)cc1 (stereo not drawn) [Compound 70, 2-[(4-chlorophenoxy)acetyl]-{1,1-[3-(dimethylamino-(3-fluorophenyl)methyl)-pentamethylene]-3,4-dihydro-1H-2,9-diazafluorene}]	31%	
CN(C)C(c1ccc(F)cc1)C1CCC2(CC1)c1[nH]c3ccccc3c1CCN2C(=O)COc1ccc(Cl)cc1 (stereo not drawn) [Compound 65, 2-[(4-chlorophenoxy)acetyl]-{1,1-[3-(dimethylamino-(4-fluorophenyl)methyl)-pentamethylene]-3,4-dihydro-1H-2,9-diazafluorene}]	17%	
CN(C)C(c1ccc(F)cc1)C1CCC2(CC1)c1[nH]c3ccccc3c1CCN2C(=O)COCc1ccccc1 (stereo not drawn) [Compound 88, 2-(benzyloxyacetyl)-{1,1-[3-(dimethylamino-(4-fluorophenyl)methyl)-pentamethylene]-3,4-dihydro-1H-2,9-diazafluorene}]	11%	
CN(C)C(c1ccccc1)C1CCC2(CC1)c1[nH]c3ccccc3c1CCN2C(=O)CC(C)(C)C (stereo not drawn) [Compound 56, 1-{1,1-[3-(dimethylamino-phenylmethyl)-pentamethylene]-3,4-dihydro-1H-2,9-diazafluoren-2-yl}-3,3-dimethylbutan-1-one]	36%	
CN(C)C(c1ccccc1)C1CCC2(CC1)c1[nH]c3ccccc3c1CCN2C(=O)C1CCCCC1 (stereo not drawn) [Compound 59, 2-(cyclohexylcarbonyl)-{1,1-[3-(dimethylamino-phenylmethyl)-pentamethylene]-3,4-dihydro-1H-2,9-diazafluorene}]	29%	
CC(Oc1ccccc1)C(=O)N1CCc2c([nH]c3ccccc23)C12CCC(C(c1ccc(F)cc1)N(C)C)CC2 (stereo not drawn) [Compound 141, 2-(2-phenoxypropanoyl)-{1,1-[3-(dimethylamino-(4-fluorophenyl)methyl)-pentamethylene]-3,4-dihydro-1H-2,9-diazafluorene}]	47%	
CN(C)C(c1ccc(F)cc1)C1CCC2(CC1)c1[nH]c3ccccc3c1CCN2C(=O)C1CCCC1 (stereo not drawn) [Compound 109, 2-cyclopentylcarbonyl-{1,1-[3-(dimethylamino-(4-fluorophenyl)methyl)-pentamethylene]-3,4-dihydro-1H-2,9-diazafluorene}]	21%	
CCCCC(CC)C(=O)N1CCc2c([nH]c3ccccc23)C12CCC(C(c1cccc(F)c1)N(C)C)CC2 (stereo not drawn) [Compound 111, 2-(2-ethylhexanoyl)-{1,1-[3-(dimethylamino-(3-fluorophenyl)methyl)-pentamethylene]-3,4-dihydro-1H-2,9-diazafluorene}]	13%	
CC(Oc1ccccc1)C(=O)N1CCc2c([nH]c3ccccc23)C12CCC(C(c1ccc(Cl)cc1)N(C)C)CC2 (stereo not drawn) [Compound 133, 2-(2-phenoxypropanoyl)-{1,1-[3-(dimethylamino-(4-chlorophenyl)methyl)-pentamethylene]-3,4-dihydro-1H-2,9-diazafluorene}]	71%	
CN(C)C(c1cccc(F)c1)C1CCC2(CC1)OCCc1c2[nH]c2ccc(F)cc12 (stereo not drawn) [Compound 36, 6-Fluoro-1,1-[3-(dimethylamino-(3-fluorophenyl)-methyl)-pentamethylene]-1,3,4,9-tetrahydropyrano[3,4-b]indole]		inhibition at 1 µM (1 μM test substance, displacement of [3H]-naloxone, read-out: μ opioid receptor [1 μM], % inhibition): 102%; Ki (Cheng-Prusoff conversion from IC50, read-out: μ opioid receptor, Ki): 46 nM
CC(C)C(=O)N1CCc2c([nH]c3ccccc23)C12CCC(C(c1ccc(Cl)cc1)N(C)C)CC2 (stereo not drawn) [Compound 119, 2-isobutyryl-{1,1-[3-(dimethylamino-(4-chlorophenyl)methyl)-pentamethylene]-3,4-dihydro-1H-2,9-diazafluorene}]	40%	
Cc1ccc2[nH]c3c(c2c1)CC(C)OC31CCC(C(CCc2ccccc2)N(C)C)CC1 (stereo not drawn) [Compound 43, 3,6-Dimethyl-1,1-[3-(dimethylamino-(phenylethyl)-methyl)-pentamethylene]-1,3,4,9-tetrahydropyrano[3,4-b]indole]		μ opioid receptor [1 μM], % inhibition [1]: 42%
CC(C)C(=O)N1CCc2c([nH]c3ccccc23)C12CCC(C(c1ccccc1)N(C)C)CC2 (stereo not drawn) [Compound 101, 2-isobutyryl-{1,1-[3-(dimethylamino-phenylmethyl) -pentamethylene]-3,4-dihydro-1H-2,9-diazafluorene}]	74%	
CN(C)C(c1ccccc1)C1CCC2(CC1)c1[nH]c3ccccc3c1CCN2C(=O)Cc1cccs1 (stereo not drawn) [Compound 82, 2-(2-thienylacetyl)-{1,1-[3-(dimethylamino-phenylmethyl)-pentamethylene]-3,4-dihydro-1H-2,9-diazafluorene}]	31%	
CN(C)C(c1ccc(F)cc1)C1CCC2(CC1)c1[nH]c3ccccc3c1CCN2C(=O)Cc1ccc(F)cc1 (stereo not drawn) [Compound 110, 2-[(4-fluorophenyl)acetyl]-{1,1-[3-(dimethylamino-(4-fluorophenyl)methyl)-pentamethylene]-3,4-dihydro-1H-2,9-diazafluorene}]	14%	
CC(CC(=O)N1CCc2c([nH]c3ccccc23)C12CCC(C(c1cccc(F)c1)N(C)C)CC2)c1ccccc1 (stereo not drawn) [Compound 130, 1-{1,1-[3-(dimethylamino-(3-fluorophenyl)methyl) -pentamethylene]-3,4-dihydro-1H-2,9-diazafluoren-2-yl}-3-phenylbutan-1-one]	49%	
CC(=O)N1CCc2c([nH]c3ccccc23)C12CCC(C(c1ccc(F)cc1)N(C)C)CC2 (stereo not drawn) [Compound 84, acetyl-{1,1-[3-(dimethylamino-(4-fluorophenyl)methyl) -pentamethylene]-3,4-dihydro-1H-2,9-diazafluorene}]	41%	
CN(C)C(c1ccc(Cl)cc1)C1CCC2(CC1)c1[nH]c3ccccc3c1CCN2C(=O)c1cc2ccccc2s1 (stereo not drawn) [Compound 78, 2-(1-benzothien-2-ylcarbonyl)-{1,1-[3-(dimethylamino-(4-chlorophenyl)-methyl)-pentamethylene]-3,4-dihydro-1H-2,9-diazafluorene}]	11%	
CC1Cc2c([nH]c3ccc(F)cc23)C2(CCC(C(c3ccc(Cl)cc3)N(C)C)CC2)O1 (stereo not drawn) [Compound 55, 6-Fluoro-3-methyl-1,1-[3-(dimethylamino-(4-chlorophenyl) -methyl)-penta-methylene]-1,3,4,9-tetrahydropyrano[3,4-b]indole]		μ opioid receptor [1 μM], % inhibition [1]: 58%
CCC(=O)N1CCc2c([nH]c3ccccc23)C12CCC(C(c1ccccc1)N(C)C)CC2 (stereo not drawn) [Compound 102, 2-propionyl-{1,1-[3-(dimethylamino-phenylmethyl) -pentamethylene]-3,4-dihydro-1H-2,9-diazafluorene}]	55%	
CN(C)C(c1cccc(F)c1)C1CCC2(CC1)c1[nH]c3ccccc3c1CCN2C(=O)C1CCCCC1 (stereo not drawn) [Compound 69, 2-(cyclohexylcarbonyl)-{1,1-[3-(dimethylamino-(3-fluorophenyl)methyl)-pentamethylene]-3,4-dihydro-1H-2,9-diazafluorene}]	26%	
COc1ccc(CC(=O)N2CCc3c([nH]c4ccccc34)C23CCC(C(c2ccccc2)N(C)C)CC3)cc1OC (stereo not drawn) [Compound 57, 2-[(3,4-dimethoxyphenyl)acetyl]-{1,1-[3-(dimethylamino-phenylmethyl)-pentamethylene]-3,4-dihydro-1H-2,9-diazafluorene}]	55%	
CN(C)C(c1ccc(Cl)cc1)C1CCC2(CC1)c1[nH]c3ccccc3c1CCN2C(=O)CCC1CCCC1 (stereo not drawn) [Compound 95, 2-(3-cyclopentylpropanoyl)-{1,1-[3-(dimethylamino-(4-chlorophenyl)-methyl)-pentamethylene]-3,4-dihydro-1H-2,9-diazafluorene}]	18%	
CN(C)C(c1ccccc1)C1CCC2(CC1)c1[nH]c3ccccc3c1CCN2C(=O)COCc1ccccc1 (stereo not drawn) [Compound 83, 2-(benzyloxyacetyl)-{1,1-[3-(dimethylamino-phenylmethyl) -pentamethylene]-3,4-dihydro-1H-2,9-diazafluorene}]	50%	
